The values below come from patent US9562044B2, “2-acylaminothiazole derivative or salt thereof” (ASTELLAS PHARMA INC., priority 2013, dated 2017).

For data set [1], the target named is T1, human c-Mpl receptor (Homo sapiens, UniProt P40238).
T1 construct: expressed in transfected cells
T1 sequence (P40238 26-635): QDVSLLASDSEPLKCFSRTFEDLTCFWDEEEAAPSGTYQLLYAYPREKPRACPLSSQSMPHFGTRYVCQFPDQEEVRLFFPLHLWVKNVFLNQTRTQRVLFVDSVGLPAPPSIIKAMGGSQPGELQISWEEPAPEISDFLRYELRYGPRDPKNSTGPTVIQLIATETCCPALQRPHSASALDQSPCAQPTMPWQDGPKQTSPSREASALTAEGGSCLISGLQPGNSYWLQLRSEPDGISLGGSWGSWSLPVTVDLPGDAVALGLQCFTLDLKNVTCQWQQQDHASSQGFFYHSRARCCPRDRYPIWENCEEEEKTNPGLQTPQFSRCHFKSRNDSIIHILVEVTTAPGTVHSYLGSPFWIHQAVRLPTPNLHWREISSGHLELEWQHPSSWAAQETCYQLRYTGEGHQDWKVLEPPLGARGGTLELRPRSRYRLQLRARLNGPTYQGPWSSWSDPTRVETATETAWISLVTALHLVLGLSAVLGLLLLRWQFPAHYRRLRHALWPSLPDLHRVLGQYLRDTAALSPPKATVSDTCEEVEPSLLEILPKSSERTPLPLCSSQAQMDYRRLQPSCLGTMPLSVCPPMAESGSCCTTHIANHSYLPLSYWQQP
Particulars: positive control; as disclosed in Patent Document 1; cited from earlier work.

For data set [2], the target named is T1, human c-Mpl receptor. Nature of the data set: Human c-Mpl-introduced Ba/F3 cell proliferative activity. Type of data set: cell-based. Particulars: concentration showing 30% proliferation; 100% = positive control at 1 μM. As to the method:
Evaluation of Human c-Mpl-Introduced Ba/F3 Cell Proliferative Activity
The human c-Mpl-introduced Ba/F3 cell proliferative activity was measured by the following method.
As a positive control, 1-(5-{[4-(4-chloro-2-thienyl)-5-{[(2R)-2-methylpyrrolidin-1-yl]methyl}-1,3-thiazol-2-yl]carbamoyl}-3-fluoropyridin-2-yl)piperidine-4-carboxylic acid hydrochloride, which is disclosed as Example 315 in Patent Document 1 and represented by the formula A1, was used. It is known that the compound has a good human c-Mpl-introduced Ba/F3 cell proliferative activity as disclosed in Table 1 of Patent Document 1.
a) Construction of Human c-Mpl Receptor Expression Vector
A human c-mpl receptor gene (GenBank Accession No. M90102.1) was introduced into an expression vector pEF-BOS (Nucleic Acids Res. 18, 5322, 1990).
b) Construction of Cell Stably Expressing Human c-Mpl Receptor
A human c-Mpl receptor expression vector was introduced into a Ba/F3 cell (RIKEN BRC: RCB0805). For the introduction, an electroporation method was used. pEF-BOS-c-mpl (10 μg), pSV2bsr (1 μg, Kaken Pharmaceutical Co., Ltd.) and 1×10^7 Ba/F3 cells were put into a cuvette having a gap width of 0.4 cm, and electroporated under the conditions of 1.5 kV (25 μF) by a Gene Pulser (registered trademark) (BioRad). The cells were cultured in an RPMI-1640 culture medium containing 0.5% WEHI conditioned media (BD Biosciences) and 10% fetal bovine serum for 3 days, and then cultured in an RPMI-1640 culture medium, to which 10 μg/mL blasticidin had been further added, for 30 days to acquire a drug-resistant clone.
c) Measurement of Cell Proliferative Activity
The cells obtained in b) above was cultured in an RPMI-1640 culture medium containing 0.5% WEHI conditioned media, 10% fetal bovine serum, and used. On the day before the experiment, test substances (final concentration of 100 nM to 10 μM) which had been dissolved in a culture medium for assay (RPMI-1640 culture medium containing 10% fetal bovine serum) were added to a 384-well plate (Lot No. 781185, Greiner Bio-One). The cells in the culture medium that had been replaced with a culture medium for assay were dispensed into a 384-well plate, to which the test substances had been added in advance, to 1×10^4 cells/well, and cultured at 37° C. and 5% CO2 overnight. On the experiment day, a solution of a Cell Counting Kit (Dojindo Laboratories) was added to each well of the 384-well plate and cultured at 37° C. and 5% CO2 for about 5 hours. Thereafter, the absorbance (absorption wavelength of 450 nm) of each well was measured using Safire^2™ (TECAN) and used as the index of the number of cells. Further, as a negative control, a well in which the test substance had been not added was prepared.
The absorbance of the well without the test substance was set to 0%, and the absorbance in the case where the positive control was added at a final concentration of 1 μM was set to 100%. From the absorbance in the case where the test substance had been added, a cell proliferation rate (%) was calculated. From the obtained results, the test substance concentration showing 30% proliferation was calculated as an EC30 value by a logistic regression method.

For the next data set, the system named is isolated rat bladder. Nature of the data set: Transmural electrical field stimulation-induced contraction of isolated rat bladder. As to conditions: AUC of contractile response, value before treatment = 100%, SD female rat bladder strip, read-out: Enhancement rate of isolated bladder contraction (% of pre). As to the method: Effects on Transmural Electrical Field Stimulation-Induced Contraction of Isolated Rat Bladder
As an effect on the nerve stimulation-dependent bladder contraction in vitro, the effect of the Example compound of the present invention in the transmural electrical field stimulation-induced contraction of isolated rat bladder was measured by the following method. That is, from the bladder isolated from a Spraque-Dawley (SD) female rat (Japan SLC, Inc.), a longitudinal bladder strip having a width of about 2 mm and a length of about 10 mm was prepared. The prepared bladder strip was suspended in an organ bath filled with 10 mL of a Krebs-Henseleit solution. The Krebs-Henseleit solution was bubbled with 95% O2 and 5% CO2, and kept at 37° C. After stabilization at an initial tension of 1 g, contraction was induced twice with 60 mM KCl. The strip was washed with the Krebs-Henseleit solution and stabilized, and then contraction was induced with transmural electrical field stimulation at 20 V (stimulation frequency of 8 Hz, pulse width of 0.3 msec, and stimulation time of 10 seconds) by an electrical stimulation device (Nihon Kohden Corporation). At an interval of 2 minutes, transmural electrical field stimulation was repeated and the voltage was adjusted to make the contractile amplitude about 50% of the contractile response by 20 V. After stabilization of the contraction by the transmural electrical field stimulation, 10 μL of the test substance (final concentrations of 3 μM, 10 μM, and 30 μM), which had been dissolved in 100% dimethylsulfoxide in advance was added. The test substance was cumulatively administered at the next concentration after the contractile response at a lower concentration had been stabilized. The responses were put into a personal computer through PowerLab (registered trademark) (AD Instruments), and analyzed with LabChart (registered trademark) (AD Instruments). The area under the response of each contractile response (area under curve, AUC) was calculated and the value before the treatment with the test substance was set to 100%. Based on this, the enhancement rate of the isolated bladder contraction (% of pre) after the treatment with the test substance was calculated.
The enhancement rates of the isolated bladder contraction due to several 10 μM Example compounds which are the compounds of the formula (I) are shown in Table 2.

For `C[C@@H]1CCCN1Cc1sc(NC(=O)c2cnc(N3CCC(C(=O)O)CC3)c(F)c2)nc1-c1cc(Cl)cs1.Cl` [Example A1, 1-(5-{[4-(4-chloro-2-thienyl)-5-{[(2R)-2-methylpyrrolidin-1-yl]methyl}-1,3-thiazol-2-yl]carbamoyl}-3-fluoropyridin-2-yl)piperidine-4-carboxylic acid hydrochloride], the “Human c-Mpl-introduced Ba/F3 cell proliferative activity (Table 1 of Patent Document 1)” value on human c-Mpl receptor [1] was “good”.

As to `C[C@@H]1CCCN1Cc1sc(NC(=O)c2cnc(N3CCC(C(=O)O)CC3)cn2)nc1-c1cc(Cl)cs1` [Example 206, 1-(5-{[4-(4-chloro-2-thienyl)-5-{[(2R)-2-methylpyrrolidin-1-yl]methyl}-1,3-thiazol-2-yl]carbamoyl}pyrazin-2-yl)piperidine-4-carboxylic acid], the melting point came to 201 °C.

`CC[C@@H]1CCCN1Cc1sc(NC(=O)c2cnc(N3CCC(C(=O)O)CC3)cn2)nc1-c1ccc(OC)c(C(F)(F)F)c1` [Example 8, 1-{5-[(5-{[(2R)-2-ethylpyrrolidin-1-yl]methyl}-4-[4-methoxy-3-(trifluoromethyl)phenyl]-1,3-thiazol-2-yl)carbamoyl]pyrazin-2-yl}piperidine-4-carboxylic acid] yielded a melting point of 194 °C.

As to `COc1ccc(-c2nc(NC(=O)c3cnc(N4CCC(C(=O)O)CC4)cn3)sc2CN2CCCC2C(C)C)cc1C(F)(F)F` (stereo not shown) [Example 188], on human c-Mpl receptor [2], the “Test Example 2 EC30” value is greater than 10 µM. The activity at 10 µM in the data set with isolated rat bladder turned out to be 128%.

In the case of `CCCC1CCCN1Cc1sc(NC(=O)c2cnc(N3CCC(C(=O)O)CC3)cn2)nc1-c1ccc(OC)c(C(F)(F)F)c1` (stereo not shown) [Example 158], on human c-Mpl receptor [2], the “Test Example 2 EC30” value is greater than 10 µM. In addition, in the data set on isolated rat bladder, the activity at 10 µM stood at 125%.

As to `COc1cc(-c2nc(NC(=O)c3cnc(N4CCC(C(=O)O)CC4)cn3)sc2CN2CCCC[C@H]2C)cc(C(F)(F)F)c1` [Example 207, 1-{5-[(4-[3-methoxy-5-(trifluoromethyl)phenyl]-5-{[(2R)-2-methylpiperidin-1-yl]methyl}-1,3-thiazol-2-yl)carbamoyl]pyrazin-2-yl}piperidine-4-carboxylic acid], the melting point is 136 °C.

As for `CCOC[C@@H]1CCCN1Cc1sc(NC(=O)c2cnc(N3CCC(C(=O)O)CC3)cn2)nc1-c1cc(F)c(OC)c(Cl)c1` [Example 69], the “Test Example 2 EC30” value at human c-Mpl receptor [2] is greater than 10 µM. Moreover, the activity at 10 µM in the data set with isolated rat bladder is 152%.

As a reminder, the melting point is the temperature, or range, at which the solid turns liquid.
